Data reported in patent US4428936A, “Antibacterial composition for medical use” (Toyama Chemical Co., Ltd., priority 1978, dated 1984).

Legend:
[1] = tested on: Pseudomonas aeruginosa GN 3345; assay: Growth-inhibition test with potassium clavulanate; assay type: cell-based; parameters: key: (+) means that the test bacterium grew; (-) means that the test bacterium did not grow; conditions: potassium clavulanate by line b219-b229: 100,(unlabelled),25,(unlabelled),12.5,(unlabelled),3.1,(unlabelled),0.4,(unlabelled),0 μg/ml
Experimental: (§1) Heart Infusion agar containing a prescribed amount of Methicillin sodium or T-1551 Na was inoculated with the test bacterium at a rate of about 10^8 cells/ml. After incubation for 18 hours at 37° C., the growth of the test bacterium was inspected.
(§2) The same operation as in Test Example 1 was repeated, except that the Methicillin sodium was replaced by potassium clavulanate and the test bacteria were replaced by those shown in Tables 6, 7 and 8, to obtain the results shown in Tables 6, 7 and 8.

[2] = tested on: Klebsiella pneumoniae GN 69; assay: Growth-inhibition test with potassium clavulanate; assay type: cell-based; parameters: key: (+) means that the test bacterium grew; (-) means that the test bacterium did not grow; conditions: potassium clavulanate 100,25,6.25,1.6,0.4,0 μg/ml
Experimental: as §1, §2

[3] = tested on: Escherichia coli GN 6299; assay: Growth-inhibition test with potassium clavulanate; assay type: cell-based; parameters: key: (+) means that the test bacterium grew; (-) means that the test bacterium did not grow; conditions: potassium clavulanate by line b171,b173-b182: 100,(unlabelled),25,(unlabelled),6.25,(unlabelled),1.6,(unlabelled),0.4,(unlabelled),0 μg/ml
Experimental: as §1, §2

[4] = tested on: K. pneumoniae Y-4; assay: Effect of combined use on experimental infection in mice (protection); assay type: in vivo, mice (ICR strain) infected with K. pneumoniae; conditions: challenge dose 5.7 × 10^7 cells/mouse, peritoneal; subcutaneous administration one and two hours after inoculation
From the text: (§3) Male mice (5 mice per group) of the ICR strain, 4 weeks of age, were peritoneally inoculated with the prescribed number of pathogenic bacteria suspended in 5% mucin. After one hour and two hours following the inoculation, test preparations shown in Table 5 were subcuataneously administered to examine the protection effect.

[5] = tested on: K. pneumoniae Y-53; assay: as above; assay type: in vivo, mice (ICR strain) infected with K. pneumoniae; conditions: challenge dose 1.0 × 10^7 cells/mouse, peritoneal; subcutaneous administration one and two hours after inoculation
From the text: as §3

[6] = tested on: Pseudomonas aeruginosa S-111; assay: Growth-inhibition test on clinically isolated strain (agar, about 10^8 cells/ml); assay type: cell-based; parameters: key: (+) means that the test bacterium grew; (-) means that the test bacterium did not grow; conditions: Methicillin sodium 3200,1600,800,400,200,100,50,25,12.5,0 μg/ml, 18 hours, 37° C
Experimental: as §1

[7] = tested on: Escherichia coli TK-3; assay: as above; assay type: cell-based; parameters: key: (+) means that the test bacterium grew; (-) means that the test bacterium did not grow; conditions: Methicillin sodium: 3200,1600,800,400,200,100,50,25,12.5,0 μg/ml, 18 hours, 37° C
Experimental: as §1

[8] = tested on: Klebsiella pneumoniae Y-4; assay: as above; assay type: cell-based; parameters: key: (+) means that the test bacterium grew; (-) means that the test bacterium did not grow; conditions: Methicillin sodium: 3200,1600,800,400,200,100,50,25,12.5,0 μg/ml, 18 hours, 37° C
Experimental: as §1

[9] = tested on: Escherichia coli TK-3; assay: Minimum inhibitory concentration; assay type: cell-based; conditions: TK3; Escherichia coli TK-3 strain
Experimental: (§4) The minimum inhibitory concentration of T-1551 Na or Methicillin sodium against Escherichia coli TK-3 strain or Kleosiella pneumoniae Y-4 strain was greater than 800 μg/ml in each case.

[10] = tested on: Klebsiella pneumoniae Y-4; assay: Minimum inhibitory concentration; assay type: cell-based; conditions: Y4; Klebsiella pneumoniae Y-4 strain
Experimental: as §4

[11] = T-1551 Na unlabelled column between 12.5 and 3.1 μg/ml
[12] = T-1551 Na unlabelled column between 50 and 12.5 μg/ml
[13] = T-1551 Na unlabelled column between 200 and 50 μg/ml
[14] = T-1551 Na unlabelled column between 800 and 200 μg/ml

CCN1CCN(C(=O)N[C@@H](C(=O)N[C@@H]2C(=O)N3C(C(=O)O)=C(CSc4nnnn4C)CS[C@H]23)c2ccc(O)cc2)C(=O)C1=O [T-1551 Na, sodium 7-[D(-)-α-(4-ethyl-2,3-dioxo-1-piperazinylcarbonylamino)-p-hydroxyphenylacetamide]-3-[5-(1-methyl-1,2,3,4-tetrazolyl)thiomethyl]-Δ^3-cephem-4-carboxylate]
growth of the test bacterium ([1]; T-1551 Na 3.1 μg/ml): + | growth of the test bacterium ([1]; T-1551 Na 12.5 μg/ml): + | growth of the test bacterium ([1]; T-1551 Na 50 μg/ml): + | growth of the test bacterium ([1]; T-1551 Na 200 μg/ml): + | growth of the test bacterium ([1]; T-1551 Na 800 μg/ml): - | growth of the test bacterium [1, 11]: + | growth of the test bacterium [1, 12]: + | growth of the test bacterium [1, 13]: + | growth of the test bacterium [1, 14]: - | growth of the test bacterium ([2]; T-1551 Na 0.2 μg/ml): + | growth of the test bacterium ([2]; T-1551 Na 0.8 μg/ml): + | growth of the test bacterium ([2]; T-1551 Na 3.1 μg/ml): + | growth of the test bacterium ([2]; T-1551 Na 12.5 μg/ml): + | growth of the test bacterium ([2]; T-1551 Na 50 μg/ml): + | growth of the test bacterium ([2]; T-1551 Na 200 μg/ml): + | growth of the test bacterium ([2]; T-1551 Na 800 μg/ml): - | growth of the test bacterium ([3]; T-1551 Na 0.2 μg/ml): + | growth of the test bacterium ([3]; T-1551 Na 0.8 μg/ml): + | growth of the test bacterium ([3]; T-1551 Na 3.1 μg/ml): + | growth of the test bacterium ([3]; T-1551 Na 12.5 μg/ml): + | growth of the test bacterium ([3]; T-1551 Na 50 μg/ml): + | growth of the test bacterium ([3]; T-1551 Na 200 μg/ml): + | growth of the test bacterium ([3]; T-1551 Na 800 μg/ml): + | growth of the test bacterium ([3]; T-1551 Na unlabelled column between 0.8 and 0.2 μg/ml): + | growth of the test bacterium ([3]; T-1551 Na unlabelled column between 3.1 and 0.8 μg/ml): + | growth of the test bacterium [3, 11]: + | growth of the test bacterium [3, 12]: + | growth of the test bacterium [3, 13]: + | growth of the test bacterium [3, 14]: + | ED50 (protection effect) [4]: > 26.8 mg/mouse | ED50 (protection effect) [5]: > 10.0 mg/mouse | growth of the test bacterium ([6]; T-1551 Na 0.78 μg/ml): + | growth of the test bacterium ([6]; T-1551 Na 1.56 μg/ml): + | growth of the test bacterium ([6]; T-1551 Na 3.13 μg/ml): + | growth of the test bacterium ([6]; T-1551 Na 6.25 μg/ml): + | growth of the test bacterium ([6]; T-1551 Na 12.5 μg/ml): + | growth of the test bacterium ([6]; T-1551 Na 25 μg/ml): + | growth of the test bacterium ([6]; T-1551 Na 50 μg/ml): + | growth of the test bacterium ([6]; T-1551 Na 100 μg/ml): + | growth of the test bacterium ([6]; T-1551 Na 200 μg/ml): + | growth of the test bacterium ([7]; T-1551 Na 0.78 μg/ml): + | growth of the test bacterium ([7]; T-1551 Na 1.56 μg/ml): + | growth of the test bacterium ([7]; T-1551 Na 3.13 μg/ml): + | growth of the test bacterium ([7]; T-1551 Na 6.25 μg/ml): + | growth of the test bacterium ([7]; T-1551 Na 12.5 μg/ml): + | growth of the test bacterium ([7]; T-1551 Na 25 μg/ml): + | growth of the test bacterium ([7]; T-1551 Na 50 μg/ml): + | growth of the test bacterium ([7]; T-1551 Na 100 μg/ml): + | growth of the test bacterium ([7]; T-1551 Na 200 μg/ml): + | growth of the test bacterium ([8]; T-1551 Na 0.78 μg/ml): + | growth of the test bacterium ([8]; T-1551 Na 1.56 μg/ml): + | growth of the test bacterium ([8]; T-1551 Na 3.13 μg/ml): + | growth of the test bacterium ([8]; T-1551 Na 6.25 μg/ml): + | growth of the test bacterium ([8]; T-1551 Na 12.5 μg/ml): + | growth of the test bacterium ([8]; T-1551 Na 25 μg/ml): + | growth of the test bacterium ([8]; T-1551 Na 50 μg/ml): + | growth of the test bacterium ([8]; T-1551 Na 100 μg/ml): + | growth of the test bacterium ([8]; T-1551 Na 200 μg/ml): + | MIC [9]: > 800 µg/mL | MIC [10]: > 800 µg/mL
